We go through five compounds from publication PMC3309038 (Bioorganic & medicinal chemistry letters, 2012).

One data set is described as follows: in vitro. The format is in vitro ADME. The following applies: rat, microsomes, pH 7.4.
A short description of data set [1]: Microsomal stability assay, human liver microsomes. Conditions: pH 7.4. The format is in vitro ADME.
The subject of the next data set is TZM-bl cells. The following applies: read-out: CC50, cytotoxicity to 50% of cells, published previously; cited from earlier work.
The next data set deals with wild-type HIV-1 NL4-3. In words: Anti-HIV activity against wild-type HIV-1 NL4-3 infection of TZM-bl cells. The format is cell-based. The following applies: HIV-1 NL4-3 wild-type.

Each structure is given as a SMILES string.

Consider `Cc1cc(/C=C/C#N)cc(C)c1Nc1ccnc(Nc2ccc(C#N)cc2)n1` [Compound 2, rilpivirine], for which the microsomal CLint at 1 μM in the data set “in vitro” was 57 µL/min/mg; in data set [1], 200 µL/min/mg. Consider `Cc1cc(/C=C/C#N)cc(C)c1Oc1cc(Nc2ccc(C#N)cc2)c(N)cc1[N+](=O)[O-]` [Compound 3], for which the microsomal CLint at 1 μM in the data set “in vitro” was determined as 50 µL/min/mg; in data set [1] it was 150 µL/min/mg. In addition, the CC50 in the data set with TZM-bl cells was > 47.1 µM. On to `COC(=O)c1cc(N)c(Nc2ccc(C#N)cc2)cc1Oc1c(C)cc(/C=C/C#N)cc1C` [Compound 9a], for which, in the data set on wild-type HIV-1 NL4-3, the “Selectivity index (SI), ratio of CC50/EC50” value is given as >8465.

As to `Cc1cc(/C=C/C#N)cc(C)c1Oc1cc(Nc2ccc(C#N)cc2)c(N)cc1C(N)=O` [Compound 9c], the microsomal CLint at 1 μM worked out at 57 µL/min/mg in the data set “in vitro” and 200 µL/min/mg in data set [1].

Take `Cc1cc(/C=C/C#N)cc(C)c1Oc1cc(Nc2ccc(C#N)cc2)c(N)cc1CO` [Compound 9e]: the microsomal CLint at 1 μM in data set [1] worked out at 230 µL/min/mg.
